According to PubChem BioAssay (NCI):
Several values for one entry are separate records, joined by “and”; a condition that tells them apart may be missing. Equal entries are not always repeated.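 Dose response: 5 concentrations. Exposure: 48 h. Format: 96-well plates. Endpoint: linear interpolation; highest concentration if not reached. The concentration for 50% growth inhibition is given as GI50. The concentration for full growth arrest is given as TGI.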

Tests used:
Assay in all cases: growth of human tumour cells (NCI), 48 h; in the data active means GI50 below about 0.43 µM; inactive means the rest
SNB-78 CNS = system: SNB-78 CNS
ACHN renal = system: ACHN renal
A498 renal = system: A498 renal
KM12 colon = system: KM12 colon
UACC-257 melanoma = system: UACC-257 melanoma
RPMI-8226 leukemia = system: RPMI-8226 leukemia
HOP-62 NSCLC = system: HOP-62 NSCLC
EKVX NSCLC = system: EKVX NSCLC
HT29 colon = system: HT29 colon
RXF 393 renal = system: RXF 393 renal
XF 498 CNS = system: XF 498 CNS
NCI-H522 lung = system: NCI-H522 lung
SK-MEL-2 melanoma = system: SK-MEL-2 melanoma
OVCAR-4 ovarian = system: OVCAR-4 ovarian
HCC-2998 colon = system: HCC-2998 colon
SNB-75 CNS = system: SNB-75 CNS
CCRF-CEM leukemia = system: CCRF-CEM leukemia
A549 NSCLC = system: A549 NSCLC
LOX IMVI melanoma = system: LOX IMVI melanoma
SN12C renal = system: SN12C renal
LXFL 529 NSCLC = system: LXFL 529 NSCLC
DLD-1 colon = system: DLD-1 colon
HOP-92 NSCLC = system: HOP-92 NSCLC
KM20L2 colon = system: KM20L2 colon
OVCAR-8 ovarian = system: OVCAR-8 ovarian
SK-OV-3 ovarian = system: SK-OV-3 ovarian
HL-60(TB) leukemia = system: HL-60(TB) leukemia
SF-295 CNS = system: SF-295 CNS
NCI-H226 lung = system: NCI-H226 lung
MOLT-4 leukemia = system: MOLT-4 leukemia
DMS 273 small cell lung = system: DMS 273 small cell lung
SNB-19 CNS = system: SNB-19 CNS
SF-539 CNS = system: SF-539 CNS
MALME-3M melanoma = system: MALME-3M melanoma
IGROV1 ovarian = system: IGROV1 ovarian
DMS 114 small cell lung = system: DMS 114 small cell lung
TK-10 renal = system: TK-10 renal
NCI-H23 lung = system: NCI-H23 lung
K-562 leukemia = system: K-562 leukemia
M14 melanoma = system: M14 melanoma
OVCAR-3 ovarian = system: OVCAR-3 ovarian
UACC-62 melanoma = system: UACC-62 melanoma
COLO 205 colon = system: COLO 205 colon
UO-31 renal = system: UO-31 renal
SK-MEL-28 melanoma = system: SK-MEL-28 melanoma
NCI-H460 lung = system: NCI-H460 lung
SK-MEL-5 melanoma = system: SK-MEL-5 melanoma
SW-620 colon = system: SW-620 colon
OVCAR-5 ovarian = system: OVCAR-5 ovarian
M19-MEL melanoma = system: M19-MEL melanoma
CAKI-1 renal = system: CAKI-1 renal
HCT-15 colon = system: HCT-15 colon
786-0 renal = system: 786-0 renal
SF-268 CNS = system: SF-268 CNS
MDA-MB-231 breast = system: MDA-MB-231 breast
MCF7 breast = system: MCF7 breast
MDA-N = system: MDA-N
NCI/ADR-RES ovarian = system: NCI/ADR-RES ovarian
U251 CNS = system: U251 CNS
T-47D breast = system: T-47D breast
HS 578T breast = system: HS 578T breast
MDA-MB-435 = system: MDA-MB-435
BT-549 breast = system: BT-549 breast
HCT-116 colon = system: HCT-116 colon
SR leukemia = system: SR leukemia
PC-3 prostate = system: PC-3 prostate
DU-145 prostate = system: DU-145 prostate

CN1c2ccccc2N(C(=O)c2ccc(Cl)cc2)C(CC(=O)O)c2cccn21 (stereo not given)
> 100000 nM: TGI (SNB-78 CNS) | TGI (ACHN renal) | TGI (A498 renal) | TGI (KM12 colon) | TGI (UACC-257 melanoma) | TGI (RPMI-8226 leukemia) | TGI (HOP-62 NSCLC) | TGI (EKVX NSCLC) | TGI (HT29 colon) | TGI (RXF 393 renal) | TGI (XF 498 CNS) | TGI (NCI-H522 lung) | TGI (SK-MEL-2 melanoma) | TGI (OVCAR-4 ovarian) | TGI (HCC-2998 colon) | TGI (SNB-75 CNS) | TGI (CCRF-CEM leukemia) | TGI (A549 NSCLC) | TGI (LOX IMVI melanoma) | TGI (SN12C renal) | TGI (LXFL 529 NSCLC) | TGI (DLD-1 colon) | TGI (HOP-92 NSCLC) | TGI (KM20L2 colon) | TGI (OVCAR-8 ovarian) | TGI (SK-OV-3 ovarian) | TGI (HL-60(TB) leukemia) | TGI (SF-295 CNS) | TGI (NCI-H226 lung) | TGI (MOLT-4 leukemia) | TGI (DMS 273 small cell lung) | TGI (SNB-19 CNS) | TGI (SF-539 CNS) | TGI (MALME-3M melanoma) | TGI (IGROV1 ovarian) | TGI (DMS 114 small cell lung) | TGI (TK-10 renal) | TGI (NCI-H23 lung) | TGI (K-562 leukemia) | TGI (M14 melanoma) | TGI (OVCAR-3 ovarian) | TGI (UACC-62 melanoma) | TGI (COLO 205 colon) | TGI (UO-31 renal) | TGI (SK-MEL-28 melanoma) | TGI (NCI-H460 lung) | TGI (SK-MEL-5 melanoma) | TGI (SW-620 colon) | TGI (OVCAR-5 ovarian) | TGI (M19-MEL melanoma) | TGI (CAKI-1 renal) | TGI (HCT-15 colon) | TGI (786-0 renal) | TGI (SF-268 CNS)

Cc1cccc(CP(Cc2cccc(C)c2)CC2(Cp3c4ccccc4c4ccccc43)COC2)c1
> 94700 nM: TGI (SK-MEL-2 melanoma)
2960 nM: TGI (COLO 205 colon)
> 94400 nM: TGI (SR leukemia)
> 37000 nM: TGI (MDA-MB-231 breast)
> 76500 nM: TGI (CAKI-1 renal)
> 100000 nM: TGI (ACHN renal) | TGI (A498 renal) | TGI (KM12 colon) | TGI (UACC-257 melanoma) | TGI (HOP-62 NSCLC) | TGI (EKVX NSCLC) | TGI (HT29 colon) | TGI (RXF 393 renal) | TGI (OVCAR-4 ovarian) | TGI (HCC-2998 colon) | TGI (MCF7 breast) | TGI (SNB-75 CNS) | TGI (CCRF-CEM leukemia) | TGI (A549 NSCLC) | TGI (MDA-N) | TGI (LOX IMVI melanoma) | TGI (NCI/ADR-RES ovarian) | TGI (HOP-92 NSCLC) | TGI (U251 CNS) | TGI (OVCAR-8 ovarian) | TGI (SK-OV-3 ovarian) | TGI (T-47D breast) | TGI (HS 578T breast) | TGI (MDA-MB-435) | TGI (SF-295 CNS) | TGI (NCI-H226 lung) | TGI (BT-549 breast) | TGI (HCT-116 colon) | TGI (SF-539 CNS) | TGI (IGROV1 ovarian) | TGI (NCI-H23 lung) | TGI (K-562 leukemia) | TGI (M14 melanoma) | TGI (OVCAR-3 ovarian) | TGI (UACC-62 melanoma) | TGI (UO-31 renal) | TGI (SK-MEL-28 melanoma) | TGI (NCI-H460 lung) | TGI (SW-620 colon) | TGI (OVCAR-5 ovarian) | TGI (PC-3 prostate) | TGI (DU-145 prostate) | TGI (HCT-15 colon) | TGI (SF-268 CNS)
> 62500 nM: TGI (RPMI-8226 leukemia)
> 83300 nM: TGI (MALME-3M melanoma)
> 31600 nM: TGI (SN12C renal) | TGI (SNB-19 CNS) | TGI (786-0 renal)
37800 nM: TGI (MOLT-4 leukemia)
> 71800 nM: TGI (TK-10 renal)
2780 nM: TGI (HL-60(TB) leukemia)
> 85800 nM: TGI (NCI-H522 lung)
13400 nM: TGI (SK-MEL-5 melanoma)

CCCCCCCCC/C=C/C=C/C(=O)NCC(=O)NC1C(O)C(O)C(Nc2ncnc3nc[nH]c23)OC1C(O)CO (stereo not given)
18.2 nM and 67.1 nM: TGI (OVCAR-5 ovarian)
3.37 nM: TGI (IGROV1 ovarian)
25.3 nM: TGI (M19-MEL melanoma)
207 nM: TGI (UACC-257 melanoma)
1710 nM: TGI (TK-10 renal)
18 nM and 70.3 nM: TGI (SNB-75 CNS)
51.5 nM: TGI (OVCAR-4 ovarian)
43.6 nM: TGI (OVCAR-3 ovarian)
3250 nM: TGI (SK-MEL-28 melanoma)
17.7 nM and 21.9 nM: TGI (UO-31 renal)
active: GI50 (ACHN renal) 14.4 nM | GI50 (KM12 colon) 1.3 nM | GI50 (HOP-62 NSCLC) 1.1 nM | GI50 (HT29 colon) 0.103 nM | GI50 (NCI-H522 lung) 4.53 nM | GI50 (OVCAR-4 ovarian) 0.22 nM | GI50 (SNB-75 CNS) 1.84 nM | GI50 (A549 NSCLC) 6.08 nM | GI50 (LOX IMVI melanoma) 7.35 nM | GI50 (LXFL 529 NSCLC) 46.7 nM | GI50 (U251 CNS) 2.14 nM | GI50 (OVCAR-8 ovarian) 5.55 nM | GI50 (HS 578T breast) 201 nM | GI50 (SF-295 CNS) 44.1 nM | GI50 (NCI-H226 lung) 1.79 nM | GI50 (MOLT-4 leukemia) 372 nM | GI50 (HCT-116 colon) 2.51 nM | GI50 (MALME-3M melanoma) 4.46 nM | GI50 (NCI-H23 lung) 24.7 nM | GI50 (K-562 leukemia) 360 nM | GI50 (M14 melanoma) 24.8 nM | GI50 (COLO 205 colon) 0.2 nM | GI50 (UO-31 renal) 3.44 nM | GI50 (NCI-H460 lung) 2.78 nM | GI50 (SW-620 colon) 2.84 nM | GI50 (OVCAR-5 ovarian) 1.37 nM | GI50 (DU-145 prostate) 4.77 nM | GI50 (SF-268 CNS) 5.58 nM
21.7 nM: TGI (U251 CNS)
16.3 nM: TGI (RXF 393 renal)
57 nM and 136 nM: TGI (SK-MEL-2 melanoma)
77 nM: TGI (OVCAR-8 ovarian)
3.89 nM and 33.7 nM: TGI (COLO 205 colon)
1230 nM and 321 nM: TGI (NCI-H460 lung)
256 nM: TGI (MDA-MB-435)
608 nM: TGI (KM12 colon)
1080 nM and 8980 nM: TGI (SF-295 CNS)
7.87 nM: TGI (PC-3 prostate)
10.5 nM and 74.7 nM: TGI (CAKI-1 renal)
103 nM: TGI (SF-539 CNS)
671 nM: TGI (SF-268 CNS)
381 nM: TGI (MALME-3M melanoma)
349 nM and 117 nM: TGI (HT29 colon)
> 100000 nM: TGI (MOLT-4 leukemia) | TGI (HCT-116 colon) | TGI (DMS 114 small cell lung) | TGI (K-562 leukemia)
18.6 nM and 126 nM: TGI (KM20L2 colon)
17.1 nM: TGI (UACC-62 melanoma)
39.6 nM: TGI (LOX IMVI melanoma)
176 nM and 256 nM: TGI (786-0 renal)
112 nM: TGI (SW-620 colon)
inactive: GI50 (DLD-1 colon) 896 nM | GI50 (SR leukemia) 765 nM | GI50 (HCT-15 colon) 2050 nM
120 nM: TGI (SK-MEL-5 melanoma)
913 nM: TGI (SN12C renal)
75.8 nM and 277 nM: TGI (NCI-H522 lung)
143 nM and 1220 nM: TGI (M14 melanoma)
8.92 nM: TGI (SK-OV-3 ovarian)
100 nM and 373 nM: TGI (NCI-H226 lung)
1210 nM: TGI (MDA-N)

CCSc1nc2cccc([N+](=O)[O-])c2n1CC
> 100000 nM: TGI (SNB-78 CNS) | TGI (KM12 colon) | TGI (UACC-257 melanoma) | TGI (RPMI-8226 leukemia) | TGI (EKVX NSCLC) | TGI (HT29 colon) | TGI (RXF 393 renal) | TGI (NCI-H522 lung) | TGI (OVCAR-4 ovarian) | TGI (HCC-2998 colon) | TGI (SNB-75 CNS) | TGI (CCRF-CEM leukemia) | TGI (A549 NSCLC) | TGI (LOX IMVI melanoma) | TGI (LXFL 529 NSCLC) | TGI (DLD-1 colon) | TGI (HOP-92 NSCLC) | TGI (U251 CNS) | TGI (OVCAR-8 ovarian) | TGI (SK-OV-3 ovarian) | TGI (HL-60(TB) leukemia) | TGI (NCI-H226 lung) | TGI (MOLT-4 leukemia) | TGI (DMS 273 small cell lung) | TGI (SNB-19 CNS) | TGI (SF-539 CNS) | TGI (IGROV1 ovarian) | TGI (DMS 114 small cell lung) | TGI (TK-10 renal) | TGI (NCI-H23 lung) | TGI (K-562 leukemia) | TGI (M14 melanoma) | TGI (OVCAR-3 ovarian) | TGI (UACC-62 melanoma) | TGI (COLO 205 colon) | TGI (SK-MEL-28 melanoma) | TGI (NCI-H460 lung) | TGI (SK-MEL-5 melanoma) | TGI (SW-620 colon) | TGI (CAKI-1 renal)
